Tests used:
Assay in all cases: biochemical
Type in all cases: binding
panel of 442 kinases [1] = molecular target: T1, panel of 442 kinases (Homo sapiens, UniProt P29322); settings: EPHA8; for remaining activity at 1 µM: read-out: % of control at 1 µM
T1 construct: purchased Ambit Biosciences (scanMAXX KINOMEscan)
T1 sequence (P29322 28-1005): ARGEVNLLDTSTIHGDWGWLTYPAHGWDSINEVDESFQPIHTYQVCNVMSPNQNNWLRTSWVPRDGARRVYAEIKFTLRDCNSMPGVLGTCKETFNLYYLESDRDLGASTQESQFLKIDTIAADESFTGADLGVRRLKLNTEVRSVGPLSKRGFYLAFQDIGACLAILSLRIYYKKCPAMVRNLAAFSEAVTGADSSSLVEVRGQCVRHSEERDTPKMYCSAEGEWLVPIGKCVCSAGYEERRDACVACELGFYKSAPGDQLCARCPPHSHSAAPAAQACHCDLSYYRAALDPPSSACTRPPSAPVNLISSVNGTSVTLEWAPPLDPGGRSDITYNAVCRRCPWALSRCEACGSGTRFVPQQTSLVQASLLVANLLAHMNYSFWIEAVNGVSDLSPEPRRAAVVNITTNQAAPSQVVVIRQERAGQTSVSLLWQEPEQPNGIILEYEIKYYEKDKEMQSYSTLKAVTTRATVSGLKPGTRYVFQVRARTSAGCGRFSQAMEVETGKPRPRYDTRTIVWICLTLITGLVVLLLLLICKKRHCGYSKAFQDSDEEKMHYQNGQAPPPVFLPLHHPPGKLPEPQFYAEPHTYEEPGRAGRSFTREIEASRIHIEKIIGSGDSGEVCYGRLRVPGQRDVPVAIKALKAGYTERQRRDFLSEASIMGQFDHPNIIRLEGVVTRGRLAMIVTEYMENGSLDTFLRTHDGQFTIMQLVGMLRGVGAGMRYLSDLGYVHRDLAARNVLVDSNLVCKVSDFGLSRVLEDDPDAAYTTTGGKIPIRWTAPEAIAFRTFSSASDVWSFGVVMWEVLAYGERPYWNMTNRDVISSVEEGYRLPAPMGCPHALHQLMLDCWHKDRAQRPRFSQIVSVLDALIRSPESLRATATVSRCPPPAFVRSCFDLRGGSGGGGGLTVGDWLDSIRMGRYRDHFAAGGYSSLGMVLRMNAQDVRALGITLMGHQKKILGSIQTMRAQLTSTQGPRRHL

panel of 442 kinases [2] = molecular target: T2, panel of 442 kinases (Homo sapiens, UniProt P08922); settings: kinase ROS1; for remaining activity at 1 µM: read-out: ROS1 (% of control at 1 µM)
T2 construct: purchased Ambit Biosciences (scanMAXX KINOMEscan)

panel of 442 kinases [3] = molecular target: T3, panel of 442 kinases (Mycobacterium tuberculosis, UniProt P9WI81); settings: for remaining activity at 1 µM: read-out: PKNB(M.tuberculosis) (% of control at 1 µM); for remaining activity at 10 µM: read-out: PKNB(M.tuberculosis) (% of control at 10 µM)
T3 construct: purchased Ambit Biosciences (scanMAXX KINOMEscan)

panel of 442 kinases [4] = molecular target: T4, panel of 442 kinases (Homo sapiens, UniProt Q13705); settings: ACVR2B; for remaining activity at 1 µM: read-out: % of control at 1 µM
T4 construct: purchased Ambit Biosciences (scanMAXX KINOMEscan)

panel of 442 kinases [5] = molecular target: T5, panel of 442 kinases (Homo sapiens, UniProt P49840); settings: kinase GSK3A; for remaining activity at 1 µM: read-out: % of control at 1 µM
T5 construct: purchased Ambit Biosciences (scanMAXX KINOMEscan)

panel of 442 kinases [6] = molecular target: T6, panel of 442 kinases (Homo sapiens, UniProt P10721); settings: kinase KIT; for remaining activity at 1 µM: read-out: % of control at 1 µM
T6 construct: purchased Ambit Biosciences (scanMAXX KINOMEscan)

panel of 442 kinases [7] = molecular target: T7, panel of 442 kinases (Homo sapiens, UniProt P54762); settings: EPHB1; for remaining activity at 1 µM: read-out: % of control at 1 µM
T7 construct: purchased Ambit Biosciences (scanMAXX KINOMEscan)
T7 sequence (P54762 18-984): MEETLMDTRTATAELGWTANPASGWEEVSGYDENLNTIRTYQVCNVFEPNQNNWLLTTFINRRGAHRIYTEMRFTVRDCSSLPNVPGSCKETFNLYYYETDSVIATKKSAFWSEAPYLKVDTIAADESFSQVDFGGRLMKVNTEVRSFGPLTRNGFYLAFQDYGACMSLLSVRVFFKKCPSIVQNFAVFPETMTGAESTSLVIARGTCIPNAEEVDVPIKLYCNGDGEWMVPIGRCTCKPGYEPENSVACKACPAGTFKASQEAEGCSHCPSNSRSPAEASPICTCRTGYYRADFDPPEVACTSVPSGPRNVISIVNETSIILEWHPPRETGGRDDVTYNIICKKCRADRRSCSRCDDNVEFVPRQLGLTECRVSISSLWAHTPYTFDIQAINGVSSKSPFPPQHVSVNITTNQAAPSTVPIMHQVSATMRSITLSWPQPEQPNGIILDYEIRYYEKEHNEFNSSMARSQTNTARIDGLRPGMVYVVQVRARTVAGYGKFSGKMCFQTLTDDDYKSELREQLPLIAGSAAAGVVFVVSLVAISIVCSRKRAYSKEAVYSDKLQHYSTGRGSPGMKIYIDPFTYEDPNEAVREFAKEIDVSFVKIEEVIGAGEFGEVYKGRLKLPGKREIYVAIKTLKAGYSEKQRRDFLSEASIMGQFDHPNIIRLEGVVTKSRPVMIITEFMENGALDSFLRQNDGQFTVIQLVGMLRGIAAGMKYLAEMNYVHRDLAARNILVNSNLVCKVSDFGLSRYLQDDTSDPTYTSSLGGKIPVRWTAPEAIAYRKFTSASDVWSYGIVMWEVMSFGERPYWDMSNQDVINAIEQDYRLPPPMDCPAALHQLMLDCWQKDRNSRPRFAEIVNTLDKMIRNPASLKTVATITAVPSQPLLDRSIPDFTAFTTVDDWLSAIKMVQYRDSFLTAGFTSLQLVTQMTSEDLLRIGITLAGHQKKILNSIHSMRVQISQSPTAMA

panel of 442 kinases [8] = molecular target: T8, panel of 442 kinases (Homo sapiens, UniProt P35916); settings: kinase FLT4; for remaining activity at 1 µM: read-out: % of control at 1 µM
T8 construct: purchased Ambit Biosciences (scanMAXX KINOMEscan)

[9] = 10 µM, read-out: % of control at 10 µM

T5 sequence (P49840 whole entry): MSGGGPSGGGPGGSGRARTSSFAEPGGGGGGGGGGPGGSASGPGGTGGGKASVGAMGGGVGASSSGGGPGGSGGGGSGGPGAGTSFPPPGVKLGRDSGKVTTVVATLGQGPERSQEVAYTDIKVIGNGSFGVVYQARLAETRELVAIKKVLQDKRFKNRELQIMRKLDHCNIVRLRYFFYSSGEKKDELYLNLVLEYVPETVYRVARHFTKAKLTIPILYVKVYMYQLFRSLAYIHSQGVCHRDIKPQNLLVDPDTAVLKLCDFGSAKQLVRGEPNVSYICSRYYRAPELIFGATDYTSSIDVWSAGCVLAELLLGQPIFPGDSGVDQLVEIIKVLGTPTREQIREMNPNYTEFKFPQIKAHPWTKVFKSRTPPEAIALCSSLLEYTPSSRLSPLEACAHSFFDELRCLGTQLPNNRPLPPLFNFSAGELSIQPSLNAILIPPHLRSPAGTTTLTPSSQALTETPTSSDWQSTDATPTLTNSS
T8 sequence (P35916 25-1363): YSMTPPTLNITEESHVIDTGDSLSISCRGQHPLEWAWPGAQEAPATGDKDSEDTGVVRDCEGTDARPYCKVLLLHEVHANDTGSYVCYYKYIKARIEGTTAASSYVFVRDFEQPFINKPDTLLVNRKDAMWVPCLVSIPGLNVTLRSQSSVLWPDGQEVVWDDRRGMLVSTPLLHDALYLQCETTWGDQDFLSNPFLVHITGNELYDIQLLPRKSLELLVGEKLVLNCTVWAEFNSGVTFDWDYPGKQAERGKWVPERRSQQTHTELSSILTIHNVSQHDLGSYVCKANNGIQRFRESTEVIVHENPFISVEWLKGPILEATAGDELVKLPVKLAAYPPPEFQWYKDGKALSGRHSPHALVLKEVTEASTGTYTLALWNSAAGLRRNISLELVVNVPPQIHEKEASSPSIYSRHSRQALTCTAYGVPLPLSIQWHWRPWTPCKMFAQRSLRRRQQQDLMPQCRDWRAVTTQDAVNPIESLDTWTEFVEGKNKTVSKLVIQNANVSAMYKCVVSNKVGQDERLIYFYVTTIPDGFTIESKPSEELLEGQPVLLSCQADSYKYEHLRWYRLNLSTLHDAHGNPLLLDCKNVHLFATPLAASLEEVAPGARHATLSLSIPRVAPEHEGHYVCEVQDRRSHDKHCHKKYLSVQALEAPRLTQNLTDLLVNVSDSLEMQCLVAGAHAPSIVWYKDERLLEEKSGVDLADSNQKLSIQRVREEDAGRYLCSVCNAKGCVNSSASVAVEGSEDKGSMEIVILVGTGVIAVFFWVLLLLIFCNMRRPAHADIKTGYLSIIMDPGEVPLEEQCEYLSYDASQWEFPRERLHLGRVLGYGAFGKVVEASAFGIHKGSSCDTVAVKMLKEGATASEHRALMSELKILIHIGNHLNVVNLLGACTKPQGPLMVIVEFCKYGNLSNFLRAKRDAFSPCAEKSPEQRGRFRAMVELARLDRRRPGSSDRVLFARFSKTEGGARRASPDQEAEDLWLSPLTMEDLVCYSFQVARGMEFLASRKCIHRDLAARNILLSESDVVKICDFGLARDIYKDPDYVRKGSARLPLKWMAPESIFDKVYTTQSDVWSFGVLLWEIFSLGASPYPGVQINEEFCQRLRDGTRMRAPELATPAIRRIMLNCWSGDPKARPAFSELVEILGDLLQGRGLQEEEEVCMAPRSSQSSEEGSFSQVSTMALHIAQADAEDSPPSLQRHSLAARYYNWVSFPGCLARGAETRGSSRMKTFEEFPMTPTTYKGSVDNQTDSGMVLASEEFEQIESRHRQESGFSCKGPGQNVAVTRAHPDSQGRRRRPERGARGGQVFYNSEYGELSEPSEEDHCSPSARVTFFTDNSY
T3 sequence (P9WI81 whole entry): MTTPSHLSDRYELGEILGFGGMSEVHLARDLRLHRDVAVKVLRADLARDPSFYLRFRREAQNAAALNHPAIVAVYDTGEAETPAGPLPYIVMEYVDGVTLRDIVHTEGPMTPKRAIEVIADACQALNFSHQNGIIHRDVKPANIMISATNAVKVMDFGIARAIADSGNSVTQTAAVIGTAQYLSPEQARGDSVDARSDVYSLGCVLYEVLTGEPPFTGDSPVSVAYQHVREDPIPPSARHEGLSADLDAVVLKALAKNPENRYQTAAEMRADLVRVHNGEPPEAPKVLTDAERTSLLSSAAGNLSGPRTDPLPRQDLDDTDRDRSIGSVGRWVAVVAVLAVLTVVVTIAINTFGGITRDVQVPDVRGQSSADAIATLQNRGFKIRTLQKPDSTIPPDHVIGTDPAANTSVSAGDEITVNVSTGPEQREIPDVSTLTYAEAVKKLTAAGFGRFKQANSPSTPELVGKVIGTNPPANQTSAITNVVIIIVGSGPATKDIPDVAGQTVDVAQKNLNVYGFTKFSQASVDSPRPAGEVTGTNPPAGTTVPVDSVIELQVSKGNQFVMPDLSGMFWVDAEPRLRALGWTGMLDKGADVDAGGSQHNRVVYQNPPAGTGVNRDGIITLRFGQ
T6 sequence (P10721 26-976): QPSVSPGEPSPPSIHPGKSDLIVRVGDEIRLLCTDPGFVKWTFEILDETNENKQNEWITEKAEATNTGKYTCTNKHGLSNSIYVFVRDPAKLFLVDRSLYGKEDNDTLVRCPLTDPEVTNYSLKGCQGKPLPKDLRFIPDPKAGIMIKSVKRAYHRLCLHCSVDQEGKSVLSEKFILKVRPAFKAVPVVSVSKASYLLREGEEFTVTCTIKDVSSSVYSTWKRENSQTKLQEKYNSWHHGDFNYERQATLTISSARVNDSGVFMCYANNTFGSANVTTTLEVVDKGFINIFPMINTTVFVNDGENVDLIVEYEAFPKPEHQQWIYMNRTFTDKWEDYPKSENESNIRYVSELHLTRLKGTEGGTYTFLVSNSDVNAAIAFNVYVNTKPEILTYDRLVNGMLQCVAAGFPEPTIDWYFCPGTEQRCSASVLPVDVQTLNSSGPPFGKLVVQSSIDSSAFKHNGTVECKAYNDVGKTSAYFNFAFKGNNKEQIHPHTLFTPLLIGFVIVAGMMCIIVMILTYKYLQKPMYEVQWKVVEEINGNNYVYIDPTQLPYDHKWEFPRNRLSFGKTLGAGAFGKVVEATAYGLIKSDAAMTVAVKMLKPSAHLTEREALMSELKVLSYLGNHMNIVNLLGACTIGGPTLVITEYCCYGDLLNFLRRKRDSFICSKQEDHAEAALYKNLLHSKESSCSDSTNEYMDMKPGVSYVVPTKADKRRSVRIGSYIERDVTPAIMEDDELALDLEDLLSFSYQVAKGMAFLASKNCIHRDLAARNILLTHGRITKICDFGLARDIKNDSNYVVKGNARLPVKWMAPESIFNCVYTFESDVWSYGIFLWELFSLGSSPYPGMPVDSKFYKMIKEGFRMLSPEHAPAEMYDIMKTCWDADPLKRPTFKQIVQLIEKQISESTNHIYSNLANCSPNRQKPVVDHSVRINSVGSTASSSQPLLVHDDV
T4 sequence (Q13705 19-512): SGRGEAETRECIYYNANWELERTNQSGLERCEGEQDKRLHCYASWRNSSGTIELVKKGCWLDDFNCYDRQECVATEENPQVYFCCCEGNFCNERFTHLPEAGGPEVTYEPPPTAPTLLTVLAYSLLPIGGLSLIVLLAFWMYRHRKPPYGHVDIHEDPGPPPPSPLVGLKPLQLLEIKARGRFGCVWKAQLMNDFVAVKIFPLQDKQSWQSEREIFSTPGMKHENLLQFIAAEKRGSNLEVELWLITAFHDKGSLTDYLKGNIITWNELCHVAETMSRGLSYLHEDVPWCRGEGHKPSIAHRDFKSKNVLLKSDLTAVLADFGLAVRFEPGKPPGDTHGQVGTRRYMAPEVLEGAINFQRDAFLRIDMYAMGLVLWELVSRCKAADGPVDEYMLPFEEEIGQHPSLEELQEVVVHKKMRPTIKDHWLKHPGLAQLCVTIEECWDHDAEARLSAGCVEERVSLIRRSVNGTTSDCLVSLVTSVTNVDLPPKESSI

Row | SMILES | remaining activity at 1 µM (panel of 442 kinases [1]) [%] | remaining activity at 10 µM (panel of 442 kinases [1]; [9]) [%] | remaining activity at 1 µM (panel of 442 kinases [2]) [%] | remaining activity at 10 µM (panel of 442 kinases [2]; 10 µM, read-out: ROS1 (% of control at 10 µM)) [%] | remaining activity at 1 µM (panel of 442 kinases [3]) [%] | remaining activity at 10 µM (panel of 442 kinases [3]) [%] | remaining activity at 1 µM (panel of 442 kinases [4]) [%] | remaining activity at 10 µM (panel of 442 kinases [4]; [9]) [%] | remaining activity at 1 µM (panel of 442 kinases [5]) [%] | remaining activity at 10 µM (panel of 442 kinases [5]; [9]) [%] | remaining activity at 1 µM (panel of 442 kinases [6]) [%] | remaining activity at 10 µM (panel of 442 kinases [6]; [9]) [%] | remaining activity at 1 µM (panel of 442 kinases [7]) [%] | remaining activity at 10 µM (panel of 442 kinases [7]; [9]) [%] | remaining activity at 1 µM (panel of 442 kinases [8]) [%] | remaining activity at 10 µM (panel of 442 kinases [8]; [9]) [%]
1 | Nc1cc(C(F)(F)F)c(-c2cc(N3CCOCC3)nc(N3CCOCC3)n2)cn1 [Buparlisib] | 100 | 100 | 84 | 79 | 100 | 73 | 100 | 100 | 93 | 100 | 89 | 66 | 88 | 100 | 99 | 100
2 | Cn1c(=O)n(-c2ccc(C(C)(C)C#N)cc2)c2c3cc(-c4cnc5ccccc5c4)ccc3ncc21 [Dactolisib, 2-methyl-2-[4-(3-methyl-2-oxo-8-quinolin-3-yl-2,3-dihydroimidazo[4,5-c]quinolin-1-yl)-phenyl] propionitrile] | 94 | – | 100 | – | 100 | – | 85 | – | – | – | 63 | – | 100 | – | 100 | –
3 | COc1ncc(-c2ccc3nccc(-c4ccnnc4)c3c2)cc1NS(=O)(=O)c1ccc(F)cc1F [Omipalisib] | 100 | – | 100 | – | 67 | – | 100 | – | 100 | – | 100 | – | 100 | – | 100 | –
4 | CS(=O)(=O)N1CCN(Cc2cc3nc(-c4cccc5[nH]ncc45)nc(N4CCOCC4)c3s2)CC1 [Pictilisib, 2-(1H-indazol-4-yl)-6-(4-methanesulfonyl-piperazin-1-ylmethyl)-4-morpholin-4-yl-t hieno[3,2-d]pyrimidine] | – | – | – | – | 85 | 55 | – | – | – | – | – | – | – | – | – | –
5 | FC(F)c1nc2ccccc2n1-c1nc(N2CCOCC2)nc(N2CCOCC2)n1 [ZSTK474, 2-(difluoromethyl)-1-[4,6-di(4-morpholinyl)-1,3,5-triazin-2-yl]-1H-benzimidazole] | 100 | – | 100 | – | 86 | – | 89 | – | 100 | – | 85 | – | 99 | – | 96 | –

Reference: publication PMC5564600 (Oncotarget, 2017)
